For assay [1], the target named is T1, Adrenergic β2 (H292 cells) (Homo sapiens, UniProt P07550).
T1 construct: endogenous in cells; host or cells: H292 cells
The assay is described as follows: Adrenergic β2 Mediated cAMP Production, single concentration 1 μM. It is filed as cell-based. The settings on record: percentage of the maximum response generated by 1E-07M formoterol; for activation at 1 µM: NCI-H292, 1 μM compound, read-out: β2 (% effect at 1 μM); for β2 (% effect at 1 μM): 1 μM compound. In short, it runs like this: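 H292 cells were plated overnight, pre-treated with 300 μM rolipram for 10 min, then exposed to compound at 1 μM final (1% DMSO) for 60 min at room temperature. cAMP in the lysates was measured by AlphaScreen against a standard curve and expressed as % of the maximal response to 1E-07M formoterol.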

The target in assay [2] is T2, human muscarinic acetylcholine M3 receptor (M3-ACh) (Homo sapiens, UniProt P20309).
T2 construct: expressed in transfected cells; host or cells: CHO-K1 (Chinese Hamster Ovary) cell membranes
The assay is described as follows: Muscarinic 3 Receptor Binding Assay, % inhibition specific binding at 1 μM. The settings on record: 1 μM compound, % inhibition specific [3H]-NMS binding. In short, it runs like this: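 Competition binding of 0.1 nM [3H]NMS to membranes from CHO-K1 cells expressing human M3, SPA format, with compound at 1 μM in 20 mM HEPES pH 7.4, 5 mM MgCl2, 1% DMSO. Incubated 16 h at room temperature; non-specific binding defined by 1 μM atropine; value is % inhibition of specific binding.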

T1 sequence (P07550 whole entry): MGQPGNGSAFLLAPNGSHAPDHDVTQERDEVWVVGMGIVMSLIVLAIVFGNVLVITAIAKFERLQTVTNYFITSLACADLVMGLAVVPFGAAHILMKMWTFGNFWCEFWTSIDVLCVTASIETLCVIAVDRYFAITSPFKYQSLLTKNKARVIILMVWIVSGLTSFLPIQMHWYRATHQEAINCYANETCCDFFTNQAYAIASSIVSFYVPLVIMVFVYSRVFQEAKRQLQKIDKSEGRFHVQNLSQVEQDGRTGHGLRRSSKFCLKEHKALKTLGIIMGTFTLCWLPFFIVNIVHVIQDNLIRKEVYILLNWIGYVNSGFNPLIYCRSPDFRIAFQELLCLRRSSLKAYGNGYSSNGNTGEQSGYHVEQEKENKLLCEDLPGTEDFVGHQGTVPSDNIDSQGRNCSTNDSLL
T2 sequence (P20309 whole entry): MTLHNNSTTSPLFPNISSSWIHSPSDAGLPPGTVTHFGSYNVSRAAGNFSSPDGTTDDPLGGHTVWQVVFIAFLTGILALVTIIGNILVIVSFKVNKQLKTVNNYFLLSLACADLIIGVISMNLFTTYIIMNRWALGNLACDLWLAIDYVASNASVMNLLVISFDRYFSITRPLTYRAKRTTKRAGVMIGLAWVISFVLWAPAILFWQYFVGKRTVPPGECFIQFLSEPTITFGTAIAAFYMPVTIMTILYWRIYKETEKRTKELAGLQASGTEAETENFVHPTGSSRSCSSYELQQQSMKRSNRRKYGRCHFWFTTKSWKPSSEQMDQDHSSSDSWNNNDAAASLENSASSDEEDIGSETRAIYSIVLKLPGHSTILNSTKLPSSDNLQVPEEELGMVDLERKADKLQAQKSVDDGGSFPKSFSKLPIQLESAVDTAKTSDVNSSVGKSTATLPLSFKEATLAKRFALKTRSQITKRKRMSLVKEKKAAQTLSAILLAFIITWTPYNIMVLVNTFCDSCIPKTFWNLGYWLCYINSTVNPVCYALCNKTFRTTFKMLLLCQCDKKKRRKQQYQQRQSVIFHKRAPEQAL

Take `O=C(Cn1ccc2cccc(Cl)c21)N1CCOC2(CCN(Cc3cc(F)cc(CCNC[C@H](O)c4ccc(O)c5[nH]c(=O)sc45)c3)CC2)C1` [Example 168, (R)-7-(2-(3-((4-(2-(7-chloro-1H-indol-1-yl)acetyl)-1-oxa-4,9-diazaspiro[5.5]undecan-9-yl)methyl)-5-fluorophenethylamino)-1-hydroxyethyl)-4-hydroxybenzo[d]thiazol-2(3H)-one]: the activation at 1 µM in assay [1] is 95%. In addition, the inhibition at 1 µM in assay [2] was 29%.

As for `O=C(c1cc2ccccc2s1)N1CCOC2(CCN(CCCCCCCCCNC[C@H](O)c3ccc(O)c4[nH]c(=O)sc34)CC2)C1` [Example 194, (R)-7-(2-(9-(4-(benzo[b]thiophene-2-carbonyl)-1-oxa-4,9-diazaspiro[5.5]undecan-9-yl)nonylamino)-1-hydroxyethyl)-4-hydroxybenzo[d]thiazol-2(3H)-one], the activation at 1 µM in assay [1] worked out at 92%. For the same compound, at 1 µM the inhibition in assay [2] was 85%.

As for `O=C(c1ccc(-c2ccccc2)cc1)N1CCOC2(CCN(Cc3cc(F)cc(CCNC[C@H](O)c4ccc(O)c5[nH]c(=O)sc45)c3)CC2)C1` [Example 171, (R)-7-(2-(3-((4-(biphenylcarbonyl)-1-oxa-4,9-diazaspiro[5.5]undecan-9-yl)methyl)-5-fluorophenethylamino)-1-hydroxyethyl)-4-hydroxybenzo[d]thiazol-2(3H)-one], the “β2 (% effect at 1 μM)” value in assay [1] is 86%. In addition, in assay [2] (1 µM), the “M3 (% inhibition at 1 μM)” value is listed as 11%.

In the case of `O=C(CCc1cccs1)N1CCOC2(CCN(CCCCCCCCCNC[C@H](O)c3ccc(O)c4[nH]c(=O)sc34)CC2)C1` [Example 207, (R)-4-hydroxy-7-(1-hydroxy-2-(9-(4-(3-(thiophen-2-yl)propanoyl)-1-oxa-4,9-diazaspiro[5.5]undecan-9-yl)nonylamino)ethyl)benzo[d]thiazol-2(3H)-one], the activation at 1 µM in assay [1] was 101%. Besides, at 1 µM the inhibition in assay [2] was 94%.

In the case of `O=C(CCc1c[nH]c2ccccc12)N1CCOC2(CCN(Cc3cc(F)cc(CCNC[C@H](O)c4ccc(O)c5[nH]c(=O)sc45)c3)CC2)C1` [Example 128, (R)-7-(2-(3-((4-(3-(1H-indol-3-yl)propanoyl)-1-oxa-4,9-diazaspiro[5.5]undecan-9-yl)methyl)-5-fluorophenethylamino)-1-hydroxyethyl)-4-hydroxybenzo[d]thiazol-2(3H)-one], in assay [1], the activation at 1 µM was determined as 112%. In assay [2], at 1 µM the inhibition was 14%.

`Cc1ccnn1CC(=O)N1CCOC2(CCN(CCCCCCCCCNC[C@H](O)c3ccc(O)c4[nH]c(=O)sc34)CC2)C1` [Example 200, (R)-4-hydroxy-7-(1-hydroxy-2-(9-(4-(2-(5-methyl-1H-pyrazol-1-yl)acetyl)-1-oxa-4,9-diazaspiro[5.5]undecan-9-yl)nonylamino)ethyl)benzo[d]thiazol-2(3H)-one]: in assay [1], the activation at 1 µM was determined as 92%. This compound showed an inhibition at 1 µM in assay [2] of 70%.

For the compound `Cc1cc(C(=O)N2CCOC3(CCN(Cc4cc(F)cc(CCNC[C@H](O)c5ccc(O)c6[nH]c(=O)sc56)c4)CC3)C2)oc1C` [Example 180, (R)-7-(2-(3-((4-(4,5-dimethylfuran-2-carbonyl)-1-oxa-4,9-diazaspiro[5.5]undecan-9-yl)methyl)-5-fluorophenethylamino)-1-hydroxyethyl)-4-hydroxybenzo[d]thiazol-2(3H)-one], the activation at 1 µM in assay [1] amounted to 92%. Moreover, at 1 µM the inhibition in assay [2] was 51%.

Take `O=C(N1CCOC2(CCN(Cc3cc(F)cc(CCNC[C@H](O)c4ccc(O)c5[nH]c(=O)sc45)c3)CC2)C1)C1(c2ccccc2)CCCC1` [Example 129, (R)-7-(2-(3-fluoro-5-((4-(1-phenylcyclopentanecarbonyl)-1-oxa-4,9-diazaspiro[5.5]undecan-9-yl)methyl)phenethylamino)-1-hydroxyethyl)-4-hydroxybenzo[d]thiazol-2(3H)-one]: the activation at 1 µM in assay [1] was 90%. Besides, in assay [2], the inhibition at 1 µM came to 20%.

As for `Cc1ccnn1CC(=O)N1CCOC2(CCN(CCOc3ccc(CNC[C@H](O)c4ccc(O)c5[nH]c(=O)sc45)cc3)CC2)C1` [Example 241, (R)-4-hydroxy-7-(1-hydroxy-2-(4-(2-(4-(2-(5-methyl-1H-pyrazol-1-yl)acetyl)-1-oxa-4,9-diazaspiro[5.5]undecan-9-yl)ethoxy)benzylamino)ethyl) benzo[d]thiazol-2(3H)-one], the activation at 1 µM in assay [1] came out at 85%. In assay [2], this compound yielded an inhibition at 1 µM of 11%.

For the compound `CC(C)(C(=O)N1CCOC2(CCN(CCOc3ccc(CNC[C@H](O)c4ccc(O)c5[nH]c(=O)sc45)cc3)CC2)C1)c1ccccc1` [Example 230, (R)-4-hydroxy-7-(1-hydroxy-2-(4-(2-(4-(2-methyl-2-phenylpropanoyl)-1-oxa-4,9-diazaspiro[5.5]undecan-9-yl)ethoxy)benzylamino)ethyl) benzo[d]thiazol-2(3H)-one], the activation at 1 µM in assay [1] worked out at 70%. 1 µM produced 31% inhibition in assay [2].

With `Cc1cc(C(=O)N2CCOC3(CCN(CCCCCCCCCNC[C@H](O)c4ccc(O)c5[nH]c(=O)sc45)CC3)C2)oc1C` [Example 195, (R)-7-(2-(9-(4-(4,5-dimethylfuran-2-carbonyl)-1-oxa-4,9-diazaspiro[5.5]undecan-9-yl)nonylamino)-1-hydroxyethyl)-4-hydroxybenzo[d]thiazol-2(3H)-one], the activation at 1 µM in assay [1] came to 86%. In assay [2], this compound yielded an inhibition at 1 µM of 88%.

As for `CC(C)(C)c1nc(C(=O)N2CCOC3(CCN(CCCCCCCCCNC[C@H](O)c4ccc(O)c5[nH]c(=O)sc45)CC3)C2)cs1` [Example 216, (R)-7-(2-(9-(4-(2-tert-butylthiazole-4-carbonyl)-1-oxa-4,9-diazaspiro[5.5]undecan-9-yl)nonylamino)-1-hydroxyethyl)-4-hydroxybenzo[d]thiazol-2(3H)-one], in assay [1], the activation at 1 µM came to 88%. Moreover, in assay [2], the inhibition at 1 µM was found to be 90%.

Take `O=C(COc1ccc(O)cc1)N1CCOC2(CCN(Cc3cc(F)cc(CCNC[C@H](O)c4ccc(O)c5[nH]c(=O)sc45)c3)CC2)C1` [Example 181, (R)-7-(2-(3-fluoro-5-((4-(2-(4-hydroxyphenoxy)acetyl)-1-oxa-4,9-diazaspiro[5.5]undecan-9-yl)methyl)phenethylamino)-1-hydroxyethyl)-4-hydroxybenzol[d]thiazol-2(3H)-one]: the “β2 (% effect at 1 μM)” value in assay [1] came to 86%. Besides, in assay [2], the “M3 (% inhibition at 1 μM)” value came out at 10%.

In the case of `O=C(c1ccsc1Cl)N1CCOC2(CCN(CCCCCCCCCNC[C@H](O)c3ccc(O)c4[nH]c(=O)sc34)CC2)C1` [Example 212, (R)-7-(2-(9-(4-(2-chlorothiophene-3-carbonyl)-1-oxa-4,9-diazaspiro[5.5]undecan-9-yl)nonylamino)-1-hydroxyethyl)-4-hydroxybenzo[d]thiazol-2(3H)-one], in assay [1], the activation at 1 µM is 93%. In assay [2], this compound showed an inhibition at 1 µM of 88%.

For `O=C(CCCc1cccs1)N1CCOC2(CCN(CCCCCCCCCNC[C@H](O)c3ccc(O)c4[nH]c(=O)sc34)CC2)C1` [Example 183, (R)-4-hydroxy-7-(1-hydroxy-2-(9-(4-(4-(thiophen-2-yl)butanoyl)-1-oxa-4,9-diazaspiro[5.5]undecan-9-yl)nonylamino)ethyl)benzo[d]thiazol-2(3H)-one], the activation at 1 µM in assay [1] turned out to be 91%. Besides, the inhibition at 1 µM in assay [2] was found to be 97%.

`Cc1n[nH]c(CC(=O)N2CCOC3(CCN(Cc4cc(F)cc(CCNC[C@H](O)c5ccc(O)c6[nH]c(=O)sc56)c4)CC3)C2)n1` [Example 134, (R)-7-(2-(3-fluoro-5-((4-(2-(3-methyl-1H-1,2,4-triazol-5-yl)acetyl)-1-oxa-4,9-diazaspiro[5.5]undecan-9-yl)methyl)phenethylamino)-1-hydroxyethyl)-4-hydroxybenzo[d]thiazol-2(3H)-one]: the activation at 1 µM in assay [1] amounted to 116%. The same compound came in with an inhibition at 1 µM in assay [2] of 4%.

Take `CCOc1ccc(O)c(C(=O)N2CCOC3(CCN(Cc4cc(F)cc(CCNC[C@H](O)c5ccc(O)c6[nH]c(=O)sc56)c4)CC3)C2)c1` [Example 154, (R)-7-(2-(3-((4-(5-ethoxy-2-hydroxybenzoyl)-1-oxa-4,9-diazaspiro[5.5]undecan-9-yl)methyl)-5-fluorophenethylamino)-1-hydroxyethyl)-4-hydroxybenzo[d]thiazol-2(3H)-one]: the activation at 1 µM in assay [1] is 102%. Besides, testing at 1 µM in assay [2] gave an inhibition of 28%.

Regarding `Cc1ccoc1C(=O)N1CCOC2(CCN(Cc3cc(F)cc(CCNC[C@H](O)c4ccc(O)c5[nH]c(=O)sc45)c3)CC2)C1` [Example 127, (R)-7-(2-(3-fluoro-5-((4-(3-methylfuran-2-carbonyl)-1-oxa-4,9-diazaspiro[5.5]undecan-9-yl)methyl)phenethylamino)-1-hydroxyethyl)-4-hydroxybenzo[d]thiazol-2(3H)-one], the activation at 1 µM in assay [1] was 97%. In assay [2], this compound came in with an inhibition at 1 µM of 78%.

For `Cc1cc(C(=O)N2CCOC3(CCN(CCOc4ccc(CNC[C@H](O)c5ccc(O)c6[nH]c(=O)sc56)cc4)CC3)C2)c(C)s1` [Example 243, (R)-7-(2-(4-(2-(4-(2,5-dimethylthiophene-3-carbonyl)-1-oxa-4,9-diazaspiro[5.5]undecan-9-yl)ethoxy)benzylamino)-1-hydroxyethyl)-4-hydroxy-benzo[d]thiazol-2(3H)-one], the activation at 1 µM in assay [1] was 84%. Further, at 1 µM the inhibition in assay [2] was 78%.

The inhibition is the drop in the measured response relative to a control, in per cent. Read a high inhibition as strong suppression.

Source of the values: patent US8148373B2, “Compounds” (AstraZeneca AB, priority 2008, dated 2012).
